In patent US5380921A, “Aminophosponic acid derivative” (Banyu Pharmaceutical Co., Ltd., priority 1993, dated 1995):
“Also recorded” adds a separate entry of the source.

Assays:
[1] = target: T1, endothelin-converting enzyme (ECE) (Bos taurus, UniProt P42891); test: ECE Activity Inhibition Test (endothelin-1 produced from big endothelin-1, RIA); assay type: biochemical; details: 10 μM test compound; 1 μM big endothelin-1; pH 7.2, 37° C., 90 minutes
T1 construct: ECE was prepared according to the method already published by Yano, et.al; endogenous in cells
T1 sequence (P42891 1-754): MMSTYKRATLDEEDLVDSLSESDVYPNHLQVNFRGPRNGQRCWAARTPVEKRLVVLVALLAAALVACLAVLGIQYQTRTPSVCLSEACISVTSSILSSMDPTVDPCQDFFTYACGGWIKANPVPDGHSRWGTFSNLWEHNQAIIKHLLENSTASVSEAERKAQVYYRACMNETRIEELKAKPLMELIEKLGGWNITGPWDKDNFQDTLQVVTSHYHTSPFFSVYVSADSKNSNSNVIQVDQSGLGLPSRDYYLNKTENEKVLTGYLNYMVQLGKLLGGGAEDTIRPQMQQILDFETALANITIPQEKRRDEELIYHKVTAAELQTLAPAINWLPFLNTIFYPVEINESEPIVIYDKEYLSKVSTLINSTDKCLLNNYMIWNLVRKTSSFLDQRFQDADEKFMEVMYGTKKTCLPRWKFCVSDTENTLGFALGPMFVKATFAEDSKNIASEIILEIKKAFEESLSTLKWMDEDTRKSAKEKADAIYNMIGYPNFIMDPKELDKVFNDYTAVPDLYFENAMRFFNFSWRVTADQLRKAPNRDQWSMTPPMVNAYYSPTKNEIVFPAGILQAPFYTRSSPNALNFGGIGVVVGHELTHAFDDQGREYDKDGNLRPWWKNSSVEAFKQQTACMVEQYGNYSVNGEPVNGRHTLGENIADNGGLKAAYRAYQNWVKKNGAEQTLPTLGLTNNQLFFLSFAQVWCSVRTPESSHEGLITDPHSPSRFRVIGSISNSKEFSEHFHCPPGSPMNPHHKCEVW
Method: ECE was prepared according to the method already published by Yano, et.al. (Biochem. Biophys. Res. Commun., Vol. 171, p.1192-1198, 1990), and 11 μg of ECE and 1 μM of big endothelin-1 were reacted with a 0.5M Tris-HCl buffer solution (pH 7.2) at 37° C. for 90 minutes in the presence or absence of a test compound, after which the amount of endothelin-1 produced thereby was determined by the RIA method, and the ECE inhibition activity of the test compound was evaluated.

Guinea Pigs = test: Effect on Big Endothelin-1-induced Increase in Airway Resistance in Guinea Pigs; assay type: in vivo, guinea pig
Method: Guinea pigs were first anesthetized with urethane, and then the necks were subjected to median incision, a tracheal cannula was inserted in the trachea. Spontaneous respiration was interrupted with succinylcholine (5 mg/kg, hypodermic injection), and then an artificial respirator was used to effect artificial ventilation (10 ml/air/kg, […]). The airway pressure was then measured and recorded using the Konzett and Rossler method (Arch. Exp. Path. Pharmacol., Vol. 135, p.71-74, 1940), via an airway contraction transducer from the tracheal cannula.
Examined was the influence of a representative compound of the present invention (Compound of Example 1, Isomer B) to the increase in airway pressure produced by the administration of 5 nmol/kg of big endothelin-1 through a polyethylene tube inserted into the common carotid vein. The test compound was injected into the common carotid vein 5 minutes before the administration of big endothelin-1. Also, upon completion of the experiment, the change in airway pressure obtained by blockage of the trachea was defined as a 100% increase in airway pressure, and the measured increases in airway pressure were expressed as percentages of this value. […]

[2] = system: Isolated Pig Coronary Arteries; test: Effect on Big Endothelin-1-induced Contraction in Isolated Pig Coronary Arteries
Method: (§1) Pig coronary arteries were isolated, and a spiral preparation having a width of 1 mm and a length of 10 mm was prepared therefrom. These samples were then placed in a 5 ml Magnus' tube filled with Krebs-Henseleit solution saturated with a gas mixture of 95% O2 and 5% CO2, and a change in the tension was isometrically measured and recorded.
The influence of a representative compound of the present invention (Compound of Example 11) to the increase in the tension produced by 30 nM of big endothelin-1 was examined. The test compound was added to the Magnus' tube 40 minutes prior to the addition of big endothelin-1.
A 100% increase in the tension was defined as that in the case of no addition of the test compound (control) at 2 hours after addition of big endothelin-1, and the comparison with the increase in the tension in the cases where the test compound was added is shown in Table 2.

[3] = system: Isolated Pig Coronary Arteries; test: Effect on endothelin-1-induced increase in tension in isolated pig coronary arteries; details: 0.3 nM endothelin-1
Method: as §1, with “recorded. […]” for “recorded.”

[4] = system: Isolated Guinea Pig Bronchial Smooth Muscles; test: Effect on Big Endothelin-1-induced Contraction in Isolated Guinea Pig Bronchial Smooth Muscles
Method: Bronchia (outer diameter approximately 2 mm) were isolated from the lung of a guinea pig, and the connective tissue, lung parenchymal tissue, etc. were peeled off, and then a ring preparation (4 mm in length) was prepared. These samples were placed in a 5 ml Magnus' tube filled with Krebs-Henseleit solution saturated with a gas mixture of 95% O2 and 5% CO2, and a change in tension was isometrically measured and recorded.
The influence of a representative compound of the present invention (Compound of Example 2, Isomer B) to the increase in the tension produced by 100 nM of big endothelin-1 was examined. The test compound was added into the Magnus' tube 40 minutes prior to the addition of big endothelin-1.
A 100% increase in the tension was defined as that in the case of no addition of the test compound (control) at 2 hours after addition of big endothelin-1, and the comparison with the increase in the tension in the cases where the test compound was added is shown in Table 3.

O=C(O)[C@H](Cc1c[nH]c2ccccc12)NC(=O)[C@H](Cc1ccccc1)NC(CCc1ccccc1)P(=O)(O)O (single isomer, unassigned) [Example 10 (Isomer B), N-[N-(3-phenyl-1-phosphonopropyl)-L-phenylalanil]-L-tryptophan]
inhibition at 10 µM [1]: 76%

CC(C)C[C@H](NC(CCc1c[nH]c2ccccc12)P(=O)(O)O)C(=O)N[C@@H](Cc1c[nH]c2ccccc12)C(=O)O (stereo partly drawn) [Example 6, N-[N-[3-(3-indolyl)-1-phosphonopropyl]-L-leucyl]-L-tryptophan]
inhibition at 10 µM [1]: 80%

CC(C)C[C@H](NC(CCc1ccccc1)P(=O)(O)O)C(=O)N[C@@H](Cc1c[nH]c2ccccc12)C(=O)O (single isomer, unassigned) [Example 1 (Isomer B), N-[N-(3-phenyl-1-phosphonopropyl)-L-leucyl]-L-tryptophan]
increase in airway pressure induced by big endothelin-1 (Guinea Pigs; 0.3, 1.0 and 3.0 mg/kg into common carotid vein, 5 minutes before 5 nmol/kg big endothelin-1, FIG. 1): remarkably inhibits the increase in the airway pressure; also recorded: suppressed the increase in airway pressure induced by big endothelin-1, in a dose-dependent manner
change in airway pressure on administration of the test compound alone (Guinea Pigs; test compound alone): no change in the airway pressure

CC(C)C[C@H](NP(=O)(O)O[C@@H]1O[C@@H](C)[C@H](O)[C@@H](O)[C@H]1O)C(=O)N[C@@H](Cc1c[nH]c2ccccc12)C(=O)O [Phosphoramidon, reference compound]
inhibition at 10 µM [1]: 64%

CC(C)C[C@H](NC(CCc1ccccc1)P(=O)(O)O)C(=O)N[C@@H](Cc1c[nH]c2ccccc12)C(=O)O (stereo partly drawn) [Example 11, N-[N-(3-phenyl-1-phosphonopropyl)-L-leucyl]-L-tryptophan]
inhibition of big endothelin-1-induced contraction (in words) ([2]; 30 nM big endothelin-1, 10-100 μM): dose-dependent inhibition
IC50 ([2]; Sus scrofa, 30 nM big endothelin-1, pig coronary arteries, calculated, read-out: IC50 value, inhibition of big endothelin-1-induced contraction): 16 µM
activity at 10 µM ([2]; Sus scrofa, 10 μM, 30 nM big endothelin-1, at 2 hours, read-out: Contraction (% of control)): 59.9%
activity at 30 µM ([2]; Sus scrofa, 30 μM, 30 nM big endothelin-1, at 2 hours, read-out: Contraction (% of control)): 35.3%
activity at 100 µM ([2]; Sus scrofa, 100 μM, 30 nM big endothelin-1, at 2 hours, read-out: Contraction (% of control)): 2.7%
effect of the compound itself on the tension of blood vessel samples ([2]; compound alone): no effect
inhibition at 10 µM [1]: 84%
effect on the increase in the tension caused by endothelin-1 [3]: no effect

CC(C)C[C@H](NC(CCc1cccc2ccccc12)P(=O)(O)O)C(=O)N[C@@H](Cc1c[nH]c2ccccc12)C(=O)O (single isomer, unassigned) [Example 2 (Isomer B), N-{N-[3-(1-naphthyl)-1-phosphonopropyl]-L-leucyl}-L-tryptophan]
inhibition of big endothelin-1-induced contraction (in words) ([4]; 100 nM big endothelin-1, 1-100 μm (so in the source)): dose-dependent inhibition
IC50 ([4]; Cavia porcellus, 100 nM big endothelin-1, guinea pig bronchia, calculated, read-out: IC50 value, inhibition of big endothelin-1-induced contraction): 16 µM
activity at 1 µM ([4]; Cavia porcellus, 1 μm (so in the source), 100 nM big endothelin-1, at 2 hours, read-out: Contraction (% of control)): 105%
activity at 10 µM ([4]; Cavia porcellus, 10 μm (so in the source), 100 nM big endothelin-1, at 2 hours, read-out: Contraction (% of control)): 54.9%
activity at 100 µM ([4]; Cavia porcellus, 100 μm (so in the source), 100 nM big endothelin-1, at 2 hours, read-out: Contraction (% of control)): 32.9%
effect of the test compound itself on the tension of bronchial samples ([4]; compound alone): no effect
